Data from patent US5807535A, “Metal complexes of hydroxyaryl containing aminocarboxylic acid chelating agents” (Australian Nuclear Science & Technology Organisation, priority 1992, dated 1998).

Assay: Complexation of (1) with 166Dy and 166Ho
Assay type: physicochemical
Details: 166Dy/166Ho, within 40 mins at RT
Method: Radiolabelling with of (1) with ^166 Dy and ^166 Ho and the serum stability of the complex formed has been investigated. A typical procedure involves dissolving (1) (2.6 10^-4 M) in 1.0 M NaOH (150 μl) and then adding saline (669 μl). Then equal volume of ligand mixture and the ^166 Dy/^166 Ho in 0.2 M NaAc (pH to 4.5) are mixed. The complexation is monitored by ITLC-SG.

In the case of O=C(O)CN(CCN(CC(=O)O)CC(=O)Nc1ccccc1O)CC(=O)Nc1ccccc1O [Compound 1], the complexation is reported as over 99%.
